These results are taken from patent US12012390B2, “Flavone compounds for the treatment and prophylaxis of hepatitis B virus disease” (priority 2018, dated 2024).

Read-outs that look alike come from different tables or passages of the source.

For assay [1], the system named is HBeAg level (surrogate marker for cccDNA) in HepDES19 cells. Kind of assay: Engineered HepDES19 primary screen assay (HBeAg as surrogate marker for cccDNA). The format is cell-based, HBV. The essentials: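 HepDES19 cells were induced by Tet withdrawal for 8 days, then exposed to half-log compound dilutions (1% DMSO) for 5 days at 37° C. HBeAg, a cccDNA surrogate, was measured by ELISA; viability by CCK-8. IC50 from 4-parameter logistic fit.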

The subject of assay [2] is HBV in primary human hepatocytes (PHH). Kind of assay: Cryopreserved primary human hepatocytes (PHH) HBV infection assay. The format is cell-based. The note with it: Hepatitis B virus, Hepatocyte, 216 h, HBV-infected cryopreserved PHH, 9 days post-compound treatment, extracellular HBsAg by CLIA; read-out: HBsAg IC50. The procedure: This assay is used to confirm the anti-HBV effect of the compounds in HBV PHH infection assay. Cryopreserved PHH (BioreclamationIVT, Lot YJM) was thawed at 37° C. and gently transferred into pre-warmed InVitroGRO HT medium (BioreclamationIVT, Cat. S03317). The mixture was centrifuged at 70 relative centrifugal force (RCF) for 3 minutes at RT, and the supernatant was discarded. Pre-warmed InVitroGRO CP medium (BioreclamationIVT, Cat #S03316) was added to the cell pellet to gently re-suspend cells. The cells were seeded at the density of 5.8×10^4 cells per well to collagen I coated 96-well plate (Gibco, Cat. A1142803) with the InVitroGRO CP medium. All plates were incubated at 37° C. with 5% CO2 and 85% humidity.
At 20 hours after plating, the medium was changed to PHH culture medium (Dulbecco's Modified Eagle Medium (DMEM)/F12 (1:1) (Gibco, Cat. 11320-033), 10% fetal bovine serum (Gibco Cat. 10099141), 100 U/mL penicillin, 100 μg/mL streptomycin (Gibco, Cat. 151401-122), 5 ng/mL human epidermal growth factor (Invitrogen Cat. PHG0311L), 20 ng/mL dexamethasone (Sigma, Cat. D4902) and 250 ng/mL human recombinant insulin (Gibco, Cat. 12585-014)). And the cells were incubated at 37° C. with 5% CO2 and 85% humidity for 4 hours. The medium was then changed to pre-warmed PHH culture medium containing 4% polyethylene glycol (PEG) MW8000 (Sigma, Cat. P1458-50ML) and 1% DMSO (Sigma, Cat. D2650). 5.8×10^6 genomic equivalents of HBV were added into the medium.
At 24 hours post-infection, the cells were gently washed with PBS and refreshed with PHH culture medium supplemented with 1% DMSO, and 0.25 mg/mL Matrix gel (Corning, Cat. 356237) at 200 μL per well. All plates were immediately placed in at 37° C. CO2 incubator.
24 hours later, serial dilutions of compounds made with DMSO were further diluted with the same culture medium (PHH culture medium supplemented with 1% DMSO and 0.25 mg/mL Matrix gel as described above) before they were added to the cells to reach desired final compound concentrations and 1% DMSO concentration. The medium containing the compounds were refreshed every three days.
At 9 days post-compound treatment, extracellular HBsAg level were measured with Chemiluminescence Immuno Assay (CLIA) kit (Autobio, HBsAg Quantitative CLIA). Extracellular HBV DNA was extracted by MagNA Pure 96 system (Roche) and then determined by quantitative PCR with the following primers and probe: […]
HBsAg IC50 and HBV DNA IC50 values were derived from the dose-response curve using 4 parameter logistic curve fit method. The compounds of formula (I) have HBsAg IC50<20 μM, particularly <1 μM; and HBV DNA IC50<50 μM. Test results of the compounds of this invention as well as the reference compounds in Cryopreserved PHH assay are given in Table 2 and Table 3.

[3] abbreviates: Hepatitis B virus, HepDES19, 120 h, read-out: IC50 (HBeAg) in HepDES19 primary screen assay, HepDES19 cells, 5 days incubation with compound, HBeAg by ELISA.

By IC50 is commonly meant the midpoint of a concentration-inhibition curve. In the case of `O=C(O)C1CC(OCCOc2ccc(-c3cc(=O)c4ccc(Cl)c(Cl)c4o3)cc2)C1` (stereo not drawn) [Example 21, 3-[2-[4-(7,8-dichloro-4-oxo-chromen-2-yl)phenoxy]ethoxy]cyclobutanecarboxylic acid], the results for the IC50 in assay [1] (setting [3]) and in assay [2] were 290 nM and 5100 nM, respectively.

As for `O=C(O)C1CC(OCCOc2ccc(-c3cc(=O)c4ccc(C5CC5)c(Cl)c4o3)cc2)C1` (single isomer, unassigned) [Example 70-B, 3-[2-[4-(8-chloro-7-cyclopropyl-4-oxo-chromen-2-yl)phenoxy]ethoxy]cyclobutanecarboxylic acid], the half-inhibitory concentration (IC50) in assay [1] (read-out: IC50 (HBeAg) in HepDES19 primary screen assay, HepDES19 cells, 5 days incubation with compound, HBeAg by ELISA) came to 2140 nM; in assay [2], 4790 nM.

With `COc1ccc2c(=O)c(-c3ccc(C(=O)O)cc3)coc2c1` [Example F-3, 4-(7-methoxy-4-oxo-chromen-3-yl)benzoic acid, reference compound], the figures for the 50% inhibitory concentration (IC50) in assay [1] (setting [3]) and in assay [2] were above 50000 nM and above 100000 nM, respectively.

Consider `O=C(O)CCOCCOc1ccc(-c2cc(=O)c3cccc(Cl)c3o2)cc1` [Example 10, 3-[2-[4-(8-chloro-4-oxo-chromen-2-yl)phenoxy]ethoxy]propanoic acid], for which the half-inhibitory concentration (IC50) in assay [1] (setting [3]) came out at 790 nM; in assay [2] it was 2720 nM.

Consider `CCOC(=O)C1CC(OCCOc2ccc(-c3cc(=O)c4cccc(Cl)c4o3)cc2)C1` (stereo not drawn) [Example 2, Ethyl 3-[2-[4-(8-chloro-4-oxo-chromen-2-yl)phenoxy]ethoxy]cyclobutanecarboxylate], for which the IC50 was 2480 nM in assay [1] (setting [3]) and 190 nM in assay [2].

Turning to `O=C(O)C1CC(OCCCOc2ccc(-c3cc(=O)c4cccc(Cl)c4o3)cc2)C1` (stereo not drawn) [Example 13, 3-[3-[4-(8-chloro-4-oxo-chromen-2-yl)phenoxy]propoxy]cyclobutanecarboxylic acid], the IC50 in assay [1] (setting [3]) came to 690 nM; in assay [2] it was 1270 nM.

Regarding `O=c1cc(-c2ccc(OCCO[C@H]3C[C@@H](C(=O)O)C3)c(C3CC3)c2)oc2c(Cl)cccc12` [Example 45, Cis-3-[2-[4-(8-chloro-4-oxo-chromen-2-yl)-2-cyclopropyl-phenoxy]ethoxy]cyclobutanecarboxylic acid], the half-inhibitory concentration (IC50) in assay [1] (setting [3]) amounted to 13200 nM; in assay [2] it was 530 nM.

`O=c1cc(-c2ccc(OCCO[C@H]3C[C@@H](C(=O)O)C3)c(Br)c2)oc2c(Cl)cccc12` [Example 44, Cis-3-[2-[2-bromo-4-(8-chloro-4-oxo-chromen-2-yl)phenoxy]ethoxy]cyclobutanecarboxylic acid]: the values for the 50% inhibitory concentration (IC50) in assay [1] (setting [3]) and in assay [2] were 570 nM and 40 nM, respectively.

Consider `COc1ccc2c(=O)cc(-c3ccc(OCCOC4CC(C(=O)O)C4)cc3)oc2c1Cl` (stereo not drawn) [Example 19, 3-[2-[4-(8-chloro-7-methoxy-4-oxo-chromen-2-yl)phenoxy]ethoxy]cyclobutanecarboxylic acid], for which the 50% inhibitory concentration (IC50) in assay [1] (setting [3]) turned out to be 22200 nM; in assay [2] it was 1510 nM.

Regarding `O=c1cc(-c2ccc(OCCO[C@H]3C[C@@H](C(=O)O)C3)cc2)oc2c(Cl)ccc(Cl)c12` [Example 29, Cis-3-[2-[4-(5,8-dichloro-4-oxo-chromen-2-yl)phenoxy]ethoxy]cyclobutanecarboxylic acid], the IC50 turned out to be 210 nM in assay [1] (setting [3]) and 900 nM in assay [2].

As for `O=c1cc(-c2ccc(OCCO[C@H]3C[C@@H](C(=O)O)C3)c(Cl)c2)oc2c(Cl)c(C(F)(F)F)ccc12` [Example 73, Cis-3-[2-[2-chloro-4-[8-chloro-4-oxo-7-(trifluoromethyl)chromen-2-yl]phenoxy]ethoxy]cyclobutanecarboxylic acid], the half-inhibitory concentration (IC50) was determined as 15400 nM in assay [1] (setting [3]) and 6770 nM in assay [2].

Take `O=C(O)COC1CC(COc2ccc(-c3cc(=O)c4cccc(Cl)c4o3)cc2)C1` (stereo not drawn) [Example 8, 2-[3-[[4-(8-chloro-4-oxo-chromen-2-yl)phenoxy]methyl]cyclobutoxy]acetic acid]: the concentration for half-maximal inhibition (IC50) in assay [1] (setting [3]) worked out at 1340 nM; in assay [2], 120 nM.

On to `O=C(O)C1CC(OCCOc2ccc(-c3cc(=O)c4cc(C5CC5)cc(Cl)c4o3)cc2)C1` (stereo not drawn) [Example 67, 3-[2-[4-(8-chloro-6-cyclopropyl-4-oxo-chromen-2-yl)phenoxy]ethoxy]cyclobutanecarboxylic acid], for which the 50% inhibitory concentration (IC50) in assay [1] (setting [3]) turned out to be 14100 nM; in assay [2] it was 2770 nM.

Consider `N#Cc1cc(-c2cc(=O)c3cccc(Cl)c3o2)ccc1OCCOC1CC(C(=O)O)C1` (stereo not drawn) [Example 46, 3-[2-[4-(8-chloro-4-oxo-chromen-2-yl)-2-cyano-phenoxy]ethoxy]cyclobutanecarboxylic acid], for which the IC50 was 16000 nM in assay [1] (setting [3]) and 130 nM in assay [2].

Consider `CC(COc1ccc(-c2cc(=O)c3cccc(Cl)c3o2)cc1)OC1CC(C(=O)O)C1` (stereo not drawn) [Example 12, 3-[2-[4-(8-chloro-4-oxo-chromen-2-yl)phenoxy]-1-methyl-ethoxy]cyclobutanecarboxylic acid], for which the half-inhibitory concentration (IC50) in assay [1] (setting [3]) is 1070 nM; in assay [2], 210 nM.

In the case of `COC(=O)[C@H]1C[C@@H](OCCOc2cnc(-c3cc(=O)c4cccc(Cl)c4o3)cn2)C1` [Example 40, Cis-methyl 3-[2-[5-(8-chloro-4-oxo-chromen-2-yl)pyrazin-2-yl]oxyethoxy]cyclobutanecarboxylate], the results for the IC50 in assay [1] (setting [3]) and in assay [2] were 1610 nM and 7120 nM, respectively.

For `O=c1cc(-c2cnc(OCCO[C@H]3C[C@@H](C(=O)O)C3)cn2)oc2c(Cl)cccc12` [Example 39, Cis-3-[2-[5-(8-chloro-4-oxo-chromen-2-yl)pyrazin-2-yl]oxyethoxy]cyclobutanecarboxylic acid], the IC50 in assay [1] (setting [3]) worked out at 9010 nM; in assay [2] it was 5740 nM.

With `O=c1cc(-c2ccc(OCCO[C@H]3C[C@@H](C(=O)O)C3)cc2)oc2c(Cl)ccc(Br)c12` [Example 28, Cis-3-[2-[4-(5-bromo-8-chloro-4-oxo-chromen-2-yl)phenoxy]ethoxy]cyclobutanecarboxylic acid], the half-inhibitory concentration (IC50) in assay [1] (setting [3]) was determined as 2800 nM; in assay [2], 1920 nM.
